In US8318762B2, “Pyrazolospiroketone acetyl-CoA carboxylase inhibitors” (Pfizer Inc., priority 2008, dated 2012):
pIC50: −log10 of the molar value.

Biological target: T1, recombinant human ACC2 (Homo sapiens, UniProt O00763)
T1 construct: a full length Cytomax clone of ACC2 was purchased from Cambridge Bioscience Limited; made in house; host or cells: CHO cells (tetracycline induction, pcDNA5 FRT TO-TOPO); purified on a Softlink Soft Release Avidin column
Assay: Measurement of human ACC2 inhibition (recombinant hACC2 Transcreener ADP detection FP assay)
Format: biochemical
Details: not given
Experimental: [3] Measurement of human ACC2 inhibition. Human ACC2 inhibition was measured using purified recombinant human ACC2 (hrACC2). […] The ACC2 was expressed in CHO cells by tetracycline induction and harvested in 5 liters of DMEM/F12 with glutamine, biotin, hygromycin and blasticidin with 1 μg/mL tetracycline (Invitrogen, Carlsbad, Calif.). The conditioned medium containing ACC2 was then applied to a Softlink Soft Release Avidin column (Promega, Madison, Wis.) and eluted with 5 mM biotin. […] The purified ACC2 was dialyzed in 50 mM Tris, 200 mM NaCl, 4 mM DTT, 2 mM EDTA, and 5% glycerol. […] The final conditions for the assay were 50 mM HEPES, pH7.5, 5 mM MgCl2, 5 mM tripotassium citrate, 2 mM DTT, 0.5 mg/mL BSA, 30 μM acetyl-CoA, 50 μM ATP, and 8 mM KHCO3. Typically, a 10 μl reaction was run for 1 hour at room temperature, and 10 μl of Transcreener stop and detect buffer was added and incubated for an additional 1 hour.

T1 sequence (O00763 whole entry): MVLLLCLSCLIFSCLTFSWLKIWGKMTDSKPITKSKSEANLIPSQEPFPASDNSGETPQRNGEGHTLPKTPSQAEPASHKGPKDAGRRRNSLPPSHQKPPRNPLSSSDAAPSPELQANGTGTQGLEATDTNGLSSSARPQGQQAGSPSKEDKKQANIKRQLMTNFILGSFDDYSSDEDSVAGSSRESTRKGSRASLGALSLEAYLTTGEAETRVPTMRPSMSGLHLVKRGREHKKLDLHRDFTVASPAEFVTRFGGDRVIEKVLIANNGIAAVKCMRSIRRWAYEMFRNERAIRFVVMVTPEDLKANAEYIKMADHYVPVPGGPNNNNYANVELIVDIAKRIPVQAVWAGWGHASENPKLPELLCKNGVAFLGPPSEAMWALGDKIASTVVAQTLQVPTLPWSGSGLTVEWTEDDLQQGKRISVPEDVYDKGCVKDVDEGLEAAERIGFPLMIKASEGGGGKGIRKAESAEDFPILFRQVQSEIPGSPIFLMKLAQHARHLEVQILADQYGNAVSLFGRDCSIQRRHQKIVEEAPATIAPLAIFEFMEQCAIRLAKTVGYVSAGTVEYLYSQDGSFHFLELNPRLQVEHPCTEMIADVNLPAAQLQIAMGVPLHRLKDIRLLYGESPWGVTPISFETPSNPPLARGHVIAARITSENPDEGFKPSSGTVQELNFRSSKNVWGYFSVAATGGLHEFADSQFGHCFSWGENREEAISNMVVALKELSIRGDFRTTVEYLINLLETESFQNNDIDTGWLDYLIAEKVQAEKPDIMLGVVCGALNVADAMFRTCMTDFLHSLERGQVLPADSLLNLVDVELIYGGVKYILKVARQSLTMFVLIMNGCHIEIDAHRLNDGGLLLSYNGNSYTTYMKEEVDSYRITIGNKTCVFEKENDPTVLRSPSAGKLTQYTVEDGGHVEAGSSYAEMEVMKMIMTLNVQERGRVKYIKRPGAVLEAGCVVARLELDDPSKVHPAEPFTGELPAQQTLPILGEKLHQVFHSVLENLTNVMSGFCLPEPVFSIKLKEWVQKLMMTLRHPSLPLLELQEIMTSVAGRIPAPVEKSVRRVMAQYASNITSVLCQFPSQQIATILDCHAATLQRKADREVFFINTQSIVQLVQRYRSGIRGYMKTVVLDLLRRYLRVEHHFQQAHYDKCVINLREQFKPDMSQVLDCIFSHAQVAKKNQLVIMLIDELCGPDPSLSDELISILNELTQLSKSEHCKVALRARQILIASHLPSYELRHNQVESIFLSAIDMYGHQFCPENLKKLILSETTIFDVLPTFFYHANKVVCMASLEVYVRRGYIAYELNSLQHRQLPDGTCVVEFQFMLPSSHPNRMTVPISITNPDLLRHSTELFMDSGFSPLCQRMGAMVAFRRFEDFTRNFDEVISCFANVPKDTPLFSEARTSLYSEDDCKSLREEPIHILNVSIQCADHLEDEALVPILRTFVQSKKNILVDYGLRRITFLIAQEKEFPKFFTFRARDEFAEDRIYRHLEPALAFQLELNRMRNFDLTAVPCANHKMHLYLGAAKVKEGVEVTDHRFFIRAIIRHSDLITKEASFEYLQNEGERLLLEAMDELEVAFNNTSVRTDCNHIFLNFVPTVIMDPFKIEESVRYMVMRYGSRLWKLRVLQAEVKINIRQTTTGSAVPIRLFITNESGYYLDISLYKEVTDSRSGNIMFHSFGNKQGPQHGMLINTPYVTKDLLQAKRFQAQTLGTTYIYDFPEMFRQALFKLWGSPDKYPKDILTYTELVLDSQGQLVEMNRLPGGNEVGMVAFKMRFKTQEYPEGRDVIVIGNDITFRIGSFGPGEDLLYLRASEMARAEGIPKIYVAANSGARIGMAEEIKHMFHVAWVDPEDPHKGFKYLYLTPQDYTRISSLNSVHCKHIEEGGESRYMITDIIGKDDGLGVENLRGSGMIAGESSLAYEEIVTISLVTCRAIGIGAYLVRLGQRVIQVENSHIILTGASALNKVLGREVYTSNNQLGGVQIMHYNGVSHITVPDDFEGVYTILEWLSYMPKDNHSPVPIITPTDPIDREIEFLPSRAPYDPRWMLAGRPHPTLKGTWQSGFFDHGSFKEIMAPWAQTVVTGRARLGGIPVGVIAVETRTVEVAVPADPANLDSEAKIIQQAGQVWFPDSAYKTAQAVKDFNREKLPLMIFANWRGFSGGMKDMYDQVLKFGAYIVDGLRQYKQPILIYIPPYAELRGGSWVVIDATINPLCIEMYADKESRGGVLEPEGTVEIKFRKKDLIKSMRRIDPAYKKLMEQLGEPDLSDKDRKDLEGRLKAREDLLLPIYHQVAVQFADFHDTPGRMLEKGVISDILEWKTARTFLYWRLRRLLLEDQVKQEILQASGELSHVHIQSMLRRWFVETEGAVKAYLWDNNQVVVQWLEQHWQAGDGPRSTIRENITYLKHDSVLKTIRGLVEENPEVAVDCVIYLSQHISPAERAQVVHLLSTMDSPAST

Row | Structure (SMILES) | pIC50
1 | CCn1nc2c(c1C)OC1(CCN(C(=O)c3cc(C)c4nc[nH]c4c3)CC1)CC2=O [3.005] | 7.10

Same assay, conditions: recombinant hACC2 transcreener assay; read-out: rhACC2 IC50

Row | Structure (SMILES) | pIC50
2 | CCc1cc(C(=O)N2CCC3(CC2)CC(=O)c2nn(CC)cc2O3)cc2c(C)n[nH]c12 [1.100] | 7.44
3 | CCc1n[nH]c2c(Cl)cc(C(=O)N3CCC4(CC3)CC(=O)c3nn(CC)cc3O4)cc12 [1.101] | 7.35
4 | Cc1n[nH]c2c(Cl)cc(C(=O)N3CCC4(CC3)CC(=O)c3nn(C(C)C)cc3O4)cc12 [1.102] | 8.30
5 | CC(C)(C)n1cc2c(n1)C(=O)CC1(CCN(C(=O)c3ccc4[nH]nc(Cl)c4c3)CC1)O2 [1.103] | 8.30
6 | Cc1cc(C(=O)N2CCC3(CC2)CC(=O)c2nn(C(C)C)cc2O3)cc2c(Cl)n[nH]c12 [1.104] | 8.40
7 | Cc1cc(C(=O)N2CCC3(CC2)CC(=O)c2nn(C(C)(C)C)cc2O3)cc2c(Cl)n[nH]c12 [1.105] | 8.70
8 | Cc1cc(C(=O)N2CCC3(CC2)CC(=O)c2nn(C4CCC4)cc2O3)cc2c(Cl)n[nH]c12 [1.106] | 8.10
9 | Cc1cc(C(=O)N2CCC3(CC2)CC(=O)c2nn(C4CCCC4)cc2O3)cc2c(Cl)n[nH]c12 [1.107] | 8.52
10 | CCn1cc2c(n1)C(=O)CC1(CCN(C(=O)c3cc(C)c4[nH]nc(Cl)c4c3)CC1)O2 [1.108] | 7.72
11 | CCCn1cc2c(n1)C(=O)CC1(CCN(C(=O)c3cc(C)c4[nH]nc(Cl)c4c3)CC1)O2 [1.109] | 7.92
12 | Cc1n[nH]c2c(Cl)cc(C(=O)N3CCC4(CC3)CC(=O)c3nn(C(C)(C)C)cc3O4)cc12 [1.110] | 8.52
13 | CCn1nc2c(c1C)OC1(CCN(C(=O)c3cc(Cl)c4[nH]nc(C)c4c3)CC1)CC2=O [1.111] | 7.92
14 | CCn1nc2c(c1C)OC1(CCN(C(=O)c3ccc4c(cnn4C)c3)CC1)CC2=O [1.112] | 7.10
15 | CCc1cc(C(=O)N2CCC3(CC2)CC(=O)c2nn(CC)c(C)c2O3)cc2c(C)n[nH]c12 [1.113] | 8.00
16 | CCOc1cc(C(=O)N2CCC3(CC2)CC(=O)c2nn(CC)cc2O3)cc2c(C)n[nH]c12 [1.115] | 7.92
17 | CCOc1cc(C(=O)N2CCC3(CC2)CC(=O)c2nn(C(C)(C)C)cc2O3)cc2c(C)n[nH]c12 [1.116] | 8.30
18 | CCOc1cc(C(=O)N2CCC3(CC2)CC(=O)c2nn(C(C)(C)C)cc2O3)cc2c(CC)n[nH]c12 [1.117] | 8.40
19 | CCOc1cc(C(=O)N2CCC3(CC2)CC(=O)c2nn(CC)c(C)c2O3)cc2c(C)n[nH]c12 [1.118] | 7.57
20 | CCOc1cc(C(=O)N2CCC3(CC2)CC(=O)c2nn(C(C)C)cc2O3)cc2c(C)n[nH]c12 [1.120] | 8.22

Row | Structure (SMILES) | pIC50
21 | CCOc1cc(C(=O)N2CCC3(CC2)CC(=O)c2nn(C(C)C)cc2O3)cc2c(CC)n[nH]c12 [1.121] | 8.22
22 | CCOc1cc(C(=O)N2CCC3(CC2)CC(=O)c2nn(C(C)C)c(C)c2O3)cc2cn[nH]c12 [1.122] | 8.30
23 | Cc1c2c(nn1C)C(=O)CC1(CCN(C(=O)c3ccc4c(cnn4C)c3)CC1)O2 [1.124] | < 5.52
24 | CCc1n[nH]c2c(C)cc(C(=O)N3CCC4(CC3)CC(=O)c3nn(CC)c(C)c3O4)cc12 [1.125] | 8.15
25 | Cc1n[nH]c2c(C)cc(C(=O)N3CCC4(CC3)CC(=O)c3nn(C5CCC5)c(C)c3O4)cc12 [1.126] | 8.52
26 | COc1cc(C(=O)N2CCC3(CC2)CC(=O)c2nn(C4CCC4)c(C)c2O3)cc2cn[nH]c12 [1.127] | 7.70
27 | Cc1cc(C(=O)N2CCC3(CC2)CC(=O)c2nn(C4CCC4)c(C)c2O3)cc2cn[nH]c12 [1.128] | 8.10
28 | Cc1n[nH]c2c(C)cc(C(=O)N3CCC4(CC3)CC(=O)c3nn(CC(C)C)c(C)c3O4)cc12 [1.129] | 8.30
29 | Cc1cc(C(=O)N2CCC3(CC2)CC(=O)c2nn(CC(C)C)c(C)c2O3)cc2cn[nH]c12 [1.130] | 7.89
30 | COc1cc(C(=O)N2CCC3(CC2)CC(=O)c2nn(CC(C)C)c(C)c2O3)cc2cn[nH]c12 [1.131] | 7.72
31 | COc1cc(C(=O)N2CCC3(CC2)CC(=O)c2nn(CC(C)C)c(C)c2O3)cc2c(C)n[nH]c12 [1.132] | 7.89
32 | Cc1c2c(nn1C(C)C)C(=O)CC1(CCN(C(=O)c3cc(Cl)c4[nH]ncc4c3)CC1)O2 [1.133] | 8.40
33 | Cc1n[nH]c2c(C)cc(C(=O)N3CCC4(CC3)CC(=O)c3nn(CC(C)C)cc3O4)cc12 [1.134] | 8.00
34 | CCC(C)n1cc2c(n1)C(=O)CC1(CCN(C(=O)c3cc(C)c4[nH]nc(C)c4c3)CC1)O2 (centres unmarked) [1.140] | 8.70
35 | CCC(C)n1cc2c(n1)C(=O)CC1(CCN(C(=O)c3ccc4[nH]ncc4c3)CC1)O2 (centres unmarked) [1.142] | 7.70
36 | Cc1n[nH]c2c(C)cc(C(=O)N3CCC4(CC3)CC(=O)c3nn(C5CC5)cc3O4)cc12 [1.143] | 8.15
37 | Cc1cc(C(=O)N2CCC3(CC2)CC(=O)c2nn(C4CC4)cc2O3)cc2cn[nH]c12 [1.144] | 7.72
38 | Cn1ncc2cc(C(=O)N3CCC4(CC3)CC(=O)c3nn(C(C)(C)C)cc3O4)ccc21 [1.145] | 7.59

Continued, values first:

Row | pIC50 | Structure (SMILES)
39 | 7.48 | Cc1n[nH]c2cc(C(=O)N3CCC4(CC3)CC(=O)c3nn(C(C)C)cc3O4)ccc12 [2.005]
40 | 7.89 | CC(C)n1cc2c(n1)C(=O)CC1(CCN(C(=O)c3cc(Cl)c4cn[nH]c4c3)CC1)O2 [2.006]
41 | 7.85 | CCc1nn(C)c2cc(C(=O)N3CCC4(CC3)CC(=O)c3nn(C(C)C)cc3O4)ccc12 [2.007]
42 | 7.09 | CCc1nn(C)c2cc(C(=O)N3CCC4(CC3)CC(=O)c3nn(CC)cc3O4)ccc12 [2.008]
43 | 8.15 | CC(C)(C)n1cc2c(n1)C(=O)CC1(CCN(C(=O)c3cc(Cl)c4cn[nH]c4c3)CC1)O2 [2.009]
44 | 7.55 | Cc1n[nH]c2cc(C(=O)N3CCC4(CC3)CC(=O)c3nn(C(C)(C)C)cc3O4)ccc12 [2.010]
45 | 7.09 | CCn1nc2c(c1C)OC1(CCN(C(=O)c3ccc4cn[nH]c4c3)CC1)CC2=O [2.011]
46 | 8.15 | CC(C)(C)n1cc2c(n1)C(=O)CC1(CCN(C(=O)c3ccc4cn[nH]c4c3)CC1)O2 [2.012]
47 | 7.72 | Cn1ncc2ccc(C(=O)N3CCC4(CC3)CC(=O)c3nn(C(C)(C)C)cc3O4)cc21 [2.013]
48 | 7.55 | CC(C)(C)n1cc2c(n1)C(=O)CC1(CCN(C(=O)c3cc(F)c4cn[nH]c4c3)CC1)O2 [2.014]
49 | 6.87 | CC(C)n1cc2c(n1)C(=O)CC1(CCN(C(=O)c3cc(F)c4cn[nH]c4c3)CC1)O2 [2.015]
50 | 6.70 | CCn1nc2c(c1C)OC1(CCN(C(=O)c3cc(F)c4cn[nH]c4c3)CC1)CC2=O [2.016]
51 | 7.28 | CC(C)(C)n1cc2c(n1)C(=O)CC1(CCN(C(=O)c3ccc4cn[nH]c4c3F)CC1)O2 [2.017]
52 | 7.48 | Cc1cc(C(=O)N2CCC3(CC2)CC(=O)c2nn(C(C)(C)C)cc2O3)cc2[nH]ncc12 [2.018]
53 | 7.57 | COc1c(C(=O)N2CCC3(CC2)CC(=O)c2nn(C(C)(C)C)cc2O3)ccc2cn[nH]c12 [2.020]
54 | 7.15 | CCn1nc2c(c1C)OC1(CCN(C(=O)c3ccc4cn[nH]c4c3OC)CC1)CC2=O [2.021]
55 | 7.33 | COc1c(C(=O)N2CCC3(CC2)CC(=O)c2nn(C(C)C)cc2O3)ccc2cn[nH]c12 [2.022]
56 | 8.52 | COc1cc(C(=O)N2CCC3(CC2)CC(=O)c2nn(C(C)(C)C)cc2O3)cc2[nH]ncc12 [2.023]

Row | pIC50 | Structure (SMILES)
57 | 7.22 | CCn1cc2c(n1)C(=O)CC1(CCN(C(=O)c3ccc4c(C)n[nH]c4c3)CC1)O2 [2.024]
58 | 7.36 | CCn1nc2c(c1C)OC1(CCN(C(=O)c3ccc4c(C)n[nH]c4c3)CC1)CC2=O [2.025]
59 | 7.55 | Cc1nc2c(C)cc(C(=O)N3CCC4(CC3)CC(=O)c3nn(C(C)C)cc3O4)cc2[nH]1 [3.001]
60 | 7.27 | CCn1nc2c(c1C)OC1(CCN(C(=O)c3cc(C)c4nc(C)[nH]c4c3)CC1)CC2=O [3.002]
61 | 6.95 | CCn1cc2c(n1)C(=O)CC1(CCN(C(=O)c3cc(C)c4nc(C)[nH]c4c3)CC1)O2 [3.004]
62 | 7.26 | Cc1cc(C(=O)N2CCC3(CC2)CC(=O)c2nn(C4CCC4)cc2O3)cc2[nH]cnc12 [3.006]
63 | 7.62 | Cc1cc(C(=O)N2CCC3(CC2)CC(=O)c2nn(C(C)C)cc2O3)cc2[nH]cnc12 [3.007]
64 | 8.22 | Cc1cc(C(=O)N2CCC3(CC2)CC(=O)c2nn(C(C)(C)C)cc2O3)cc2[nH]cnc12 [3.008]
65 | 7.66 | Cc1cc(C(=O)N2CCC3(CC2)CC(=O)c2nn(C(C)C)cc2O3)cc2c1ncn2C [3.009]
66 | 7.92 | CC(C)(C)n1cc2c(n1)C(=O)CC1(CCN(C(=O)c3ccc4nc[nH]c4c3)CC1)O2 [3.010]
67 | 7.82 | Cc1nc2ccc(C(=O)N3CCC4(CC3)CC(=O)c3nn(C(C)(C)C)cc3O4)cc2[nH]1 [3.011]
68 | 6.89 | Cc1nc2ccc(C(=O)N3CCC4(CC3)CC(=O)c3nn(C(C)C)cc3O4)cc2[nH]1 [3.012]
69 | 6.68 | CCn1nc2c(c1C)OC1(CCN(C(=O)c3ccc4nc(C)[nH]c4c3)CC1)CC2=O [3.013]
70 | 7.68 | Cn1cnc2ccc(C(=O)N3CCC4(CC3)CC(=O)c3nn(C(C)(C)C)cc3O4)cc21 [3.014]
71 | 6.82 | CC(C)n1cc2c(n1)C(=O)CC1(CCN(C(=O)c3ccc4ncn(C)c4c3)CC1)O2 [3.015]
72 | 6.57 | CCn1nc2c(c1C)OC1(CCN(C(=O)c3ccc4ncn(C)c4c3)CC1)CC2=O [3.016]
73 | 7.85 | Cc1cc(C(=O)N2CCC3(CC2)CC(=O)c2nn(C(C)C)c(C)c2O3)cc2[nH]cnc12 [3.017]
74 | 6.98 | CCn1nc2c(c1C)OC1(CCN(C(=O)c3cc(F)c4nc(C)[nH]c4c3)CC1)CC2=O [3.018]
